Laboratory results published in patent US20240299393A1, “SMALL MOLECULE DISRUPTORS OF PROTEIN INTERACTIONS IN HISTONE DEACETYLASE COMPLEXES” (Dana-Farber Cancer Institute, Inc., priority 2021, published 2024).

Tests used:
[1] = system: Rpd3-regulated genes (URS-URA3, INO1, IME2, CAR1, SPO13, TRK2); test: RT-qPCR of Rpd3-regulated genes in yeast; type: cell-based, S. cerevisiae; details: for derepression of URS-URA3 in deletion strains: rpd3Δ, sin3Δ, ume6Δ, sin3Δ/ume6Δ
Description: After yeast cells reached OD600 nm ˜0.5 in 0.8-1 mL of YPD, they were grown for two more hours at room temperature before being centrifuged to remove supernatant and freezing pellets on dry ice. For compound treatments, yeast cells at OD600 nm˜0.5 in YPD were incubated at room temperature for two hours with DMSO (1-1.6%) or the desired compound (from 25 mM stock in 100% DMSO) in an 2 mL-tube for a final volume of 0.8 mL in YPD, before being centrifuged, washed and frozen as described above. Yeast cells were then harvested for RNA extraction using a RiboPure RNA Purification Kit (Invitrogen, cat #AM1926), which involves mechanical cell wall disruption, phenol extraction of the lysate, and RNA purification using glass fiber, and filter-based RNA purification columns. RNA concentration was measured for individually purified RNA samples using a NanoDrop spectrophotometer. A total of 1 μg RNA from each sample was used for reverse transcription following a published procedure [Choi, S. G. et al 2012].
The RT-qPCR protocol used in this study was described elsewhere [Choi et al 2012]. Culture, RNA extraction, and compound treatments for neuroblastoma SK-N-BE(2)-C cells are described below. Approximately 1 μg RNA per sample was used for reverse transcription. Using a thermocycler, RNA was denatured in the presence of 0.2 μg 18 mer oligo-dT by heating the plate at 65° C. for 10 min. The plate was then immediately cooled down on ice to anneal oligo-dT on the poly-A tail of mRNA. A master mix of AffinityScript Multiple Temperature Reverses Transcriptase (Agilent, cat #600107) was prepared following the manufacturer's protocol, and mixed with RNA samples previously annealed with the oligo-dT. The plate was incubated at 42° C. for 2 h to generate cDNAs from mRNA templates. The reverse transcriptase was then denatured by heating the plate at 70° C. for 15 min. The resulting cDNA was diluted (1:20) in sterile, ultra pure water (ddH2O), and stored at −20° C. until used for qPCR. To measure gene expression, the diluted cDNA was mixed with 5 μL PowerUp SYBR Green master mix (Applied Biosystems, cat #A25743), and the mix of primers (forward+reverse, see FIG. 31; 0.3 μM final concentration) for a total volume of 10 μL. Two technical replicates were generated per cDNA sample in the 384-well PCR plate (Applied Biosystems, cat #4343370). The plate was tightly sealed with optical adhesive film (Applied Biosystems, cat #4311971). Quantitative PCR was conducted with a QuantStudio real-time PCR system from Applied Biosystems, with the following settings: 50° C./2 min, 95° C./10 min, 96° C./15 s/40 cycles, and 60° C./30 s. Dissociation curves were checked for each PCR product, to assess the specificity of the PCR amplicons.
Expression of gene X normalized to the control gene expression=k*1.96^(Ct^Control^−Ct^Test^) • where k is an arbitrary multiplier (k=1000 in this study), 1.96 is the PCR amplification efficiency constant, Ct is the cycle threshold, CtControl is the Ct value for the housekeeping gene used as control (UBC6 in yeast [Teste et al 2009]; RPS11 in human cells [Zhan et al 2014], and CtTest is the Ct value for the tested gene. Replicates corresponding to DMSO treatments or WT yeast cells were averaged and other data points normalized using those DMSO or WT values as references (i.e. expression relative to DMSO or WT). TAF10 in yeast or SNRPD3 in human cells were used as genes not known for being regulated by an HDAC complex (HDAC-unrelated genes).

[2] = system: human neuroblastoma SK-N-BE(2)-C cells; test: Single-cell RNA-seq in neuroblastoma cells; type: cell-based; details: 1 μM TSA, 25 μM E6R, 16 h
Description: Cells were grown in DMEM media supplemented with 10% FBS+PS in a 5% CO2 incubator at 37° C. […] Cells were harvested by incubating them in TryplE for 10 min. Cells were spun down for 5 min at 300 g, and the supernatant was removed. Cells were counted via hemocytometer to 20,000 cells and resuspended in 200 μL of media.
High-throughput scRNA-seq was performed using the Seq-Well S^3 platform as previously described [Gierahn et al 2017, Hughes et al 2020]. Briefly, 20,000 cells were applied to the surface of each Seq-Well array which had been preloaded with uniquely barcoded poly(dT) mRNA capture beads (Chemgenes). Following cell loading, arrays were washed with RPMI and then sealed with a polycarbonate membrane and placed in a 37° C. incubator for 30 min. After membrane sealing, the arrays were submerged in a lysis buffer (5 M guanidine thiocyanate, 10 mM EDTA, 0.1% β-mercaptoethanol, 0.1% Sarkosyl) for 20 min, and subsequently incubated in a 2 M NaCl hybridization buffer for 40 min to promote hybridization of the mRNA to the bead-bound capture oligos. Next, the beads were removed from the arrays, and they were resuspended in a master mix for reverse transcription containing Maxima H Minus Reverse Transcriptase and buffer, dNTPs, RNase inhibitor, a template switch oligonucleotide, and PEG for 30 min at room temperature, and overnight at 52° C. with end-over-end rotation. […] Then, the eluted products were quantified using a Qubit. cDNA libraries were then created using Illumina Nextera XT DNA Library Preparation Kit. Library cleanup was performed using SPRI purification as described above and library concentration and size distribution was determined using a Qubit fluorometer and Agilent TapeStation. Libraries for each sample were sequenced on a NextSeq 500 and a Nextseq 2000 with the following read structures: read 1: 21 bp; read 2: 50 bp; and index 1: 8 bp, and read 1: 26 bp; read 2: 50 bp; and index 1: 8 bp respectively. For each library 21 bases were sequenced in read 1, containing the cell barcode (12 bp) information and a unique molecular identifier (UMII, 8 bp), whereas 50 bases were obtained for the read 2 sequence. After sequencing, reads were demultiplexed using Illumina bcl2fastq (v2.20.0.422) and the resulting FASTQs were concatenated and aligned to the human “GRCh38-2020-A” reference genome using StarSolo alignment pipeline (v2.7.9a) on Terra.
Subsequently, low quality cells were filtered out, including cells with fewer than 200 unique genes, greater than 9,000 unique genes, and greater than 40% mitochondrial reads, resulting in 46,751 cells and 25,468 genes. […] Differentially expressed genes were determined using the FindMarkers function on Seurat with “test.use=MAST” and default parameters. […]

Compound	increase of INO1 expression ([1]; 250 μM, relative to DMSO)	derepression of URS-URA3 in deletion strains ([1]; 250 μM)	genes also downregulated by scRNA-seq, among 22 downregulated in bulk RNA-seq [2]	genes also upregulated in scRNA-seq, among 65 upregulated in bulk RNA-seq [2]	expression at URS-URA3 compared to E6S ([1]; different doses)	effect on CAR1 and SPO13 expression ([1]; 250 μM)	effect on all Rpd3-regulated loci ([1]; FIG. 3I)
CC(NC(=O)c1c(O)n2ccccc2nc1=O)c1ccccc1 (racemic) [E6]	~150 fold	drastically decreased	–	–	–	–	–
C[C@@H](NC(=O)c1c(O)n2ccccc2nc1=O)c1ccccc1 [E6R, 4-hydroxy-2-oxo-N—((R)-1-phenylethyl)-3,4-dihydro-2H-pyrido[, 2-a]pyrimidine-3-carboxamide]	–	–	5 genes	22 genes	stronger induction of expression at URS-URA3	–	–
CC(/C=C/C(=O)NO)=C\[C@@H](C)C(=O)c1ccc(N(C)C)cc1 [TSA, trichostatin A]	–	no effect	13 genes	43 genes	–	consistently derepressed	activated all Rpd3-regulated loci
